Test results published in publication PMC11035515 (Drugs in R&D, 2023).
“And” between values parts separate entries of the source, which are not always exact repeats. Identical values can stand only once. Marks after values point to notes of the source that are not given here.

What was measured:
CYP1A2 [1] = assay: in vitro; format: in vitro ADME; conditions: human
CYP2B6 [2] = assay: in vitro; format: in vitro ADME; conditions: human
CYP2C8 [3] = assay: in vitro; format: in vitro ADME; conditions: human
CYP2C9 [4] = assay: in vitro; format: in vitro ADME; conditions: human
CYP3A4 [5] = assay: CYP3A4 induction in cryopreserved human hepatocytes; format: in vitro ADME; conditions: mean of three donors
OCT1 = OCT1 (Homo sapiens, UniProt O15245); assay: Uptake transporter assay in transfected HEK293 cells, OCT1 inhibition; format: in vitro ADME
P-glycoprotein (P-gp) = P-glycoprotein (P-gp) (Homo sapiens, UniProt P08183); assay: Efflux transporter assay in Caco-2 cells, P-gp inhibition; format: in vitro ADME
Study 1 = format: in vivo, human; conditions: single 25-mg oral dose of [14C]-esmethadone
CYP1A2 [6] = target: CYP1A2 (Homo sapiens, UniProt P05177); conditions: HLM, esmethadone 0.2–200 μM
CYP2B6 [7] = target: T1, CYP2B6 (Homo sapiens, UniProt P20813); conditions: HLM, esmethadone 0.2–200 μM
T1 sequence (P20813 whole entry): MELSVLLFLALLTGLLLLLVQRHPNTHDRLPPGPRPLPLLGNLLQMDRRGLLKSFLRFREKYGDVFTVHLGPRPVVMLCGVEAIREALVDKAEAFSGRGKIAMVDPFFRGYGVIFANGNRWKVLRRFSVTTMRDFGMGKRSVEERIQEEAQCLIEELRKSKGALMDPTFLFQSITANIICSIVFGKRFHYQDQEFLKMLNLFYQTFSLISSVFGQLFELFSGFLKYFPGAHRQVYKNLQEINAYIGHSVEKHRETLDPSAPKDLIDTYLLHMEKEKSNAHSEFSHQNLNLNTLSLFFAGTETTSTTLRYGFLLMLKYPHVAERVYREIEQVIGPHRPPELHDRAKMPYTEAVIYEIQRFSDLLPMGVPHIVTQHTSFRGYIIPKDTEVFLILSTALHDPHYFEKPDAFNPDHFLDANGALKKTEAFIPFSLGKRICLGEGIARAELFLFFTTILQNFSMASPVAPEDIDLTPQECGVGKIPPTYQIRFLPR

CYP2C8 [8] = target: T2, CYP2C8 (Homo sapiens, UniProt P10632); conditions: HLM, esmethadone 0.2–200 μM
CYP2C9 [9] = target: T3, CYP2C9 (Homo sapiens, UniProt P11712); conditions: HLM, esmethadone 0.2–200 μM
T3 sequence (P11712 whole entry): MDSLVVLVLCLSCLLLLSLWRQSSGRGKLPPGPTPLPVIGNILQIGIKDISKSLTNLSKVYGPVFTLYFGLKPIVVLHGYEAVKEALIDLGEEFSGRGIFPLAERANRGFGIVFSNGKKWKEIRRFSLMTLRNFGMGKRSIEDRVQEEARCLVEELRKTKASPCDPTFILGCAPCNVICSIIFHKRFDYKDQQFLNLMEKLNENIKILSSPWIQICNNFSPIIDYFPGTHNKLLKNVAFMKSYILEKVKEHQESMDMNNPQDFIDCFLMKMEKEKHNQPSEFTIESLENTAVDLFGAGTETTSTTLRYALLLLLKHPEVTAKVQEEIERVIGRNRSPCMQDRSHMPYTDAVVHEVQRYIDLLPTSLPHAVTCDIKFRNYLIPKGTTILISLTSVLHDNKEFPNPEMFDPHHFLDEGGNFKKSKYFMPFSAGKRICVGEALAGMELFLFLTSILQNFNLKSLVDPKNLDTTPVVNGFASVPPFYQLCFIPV

CYP2C19 [10] = target: T4, CYP2C19 (Homo sapiens, UniProt P33261); conditions: HLM, esmethadone 0.2–200 μM
T4 sequence (P33261 whole entry): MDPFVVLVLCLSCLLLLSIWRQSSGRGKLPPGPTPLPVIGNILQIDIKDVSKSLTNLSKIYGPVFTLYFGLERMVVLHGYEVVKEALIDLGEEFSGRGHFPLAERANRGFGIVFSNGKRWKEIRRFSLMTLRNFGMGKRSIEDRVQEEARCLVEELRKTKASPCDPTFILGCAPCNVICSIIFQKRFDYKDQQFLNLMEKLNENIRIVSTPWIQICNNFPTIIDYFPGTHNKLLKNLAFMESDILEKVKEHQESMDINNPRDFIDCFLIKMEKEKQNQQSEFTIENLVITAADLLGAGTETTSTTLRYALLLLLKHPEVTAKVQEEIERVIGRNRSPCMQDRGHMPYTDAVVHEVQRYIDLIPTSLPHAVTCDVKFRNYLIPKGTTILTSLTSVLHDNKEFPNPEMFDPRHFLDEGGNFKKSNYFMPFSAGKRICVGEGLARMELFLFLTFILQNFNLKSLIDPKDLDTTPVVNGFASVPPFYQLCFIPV

[11] = cited from earlier work
CYP2B6 [12] = target: T1, CYP2B6; assay: biochemical
CYP2C8 [13] = target: T2, CYP2C8; assay: biochemical
CYP2C9 [14] = target: T3, CYP2C9; assay: biochemical
CYP2C19 [15] = target: T4, CYP2C19; assay: biochemical
[16] = target: human recombinant UGT2B15 (Homo sapiens, UniProt P54855); assay: Inhibition of UGT2B15 in Supersomes
[17] = Study 2 treatment-emergent adverse events; conditions: healthy participants, alone or in combination with dextromethorphan and midazolam
UGT1A1 = UGT1A1 (Homo sapiens, UniProt P22309); assay: Inhibition of UGT1A1 in human liver microsomes
Sequence of UGT1A1 (P22309 26-533): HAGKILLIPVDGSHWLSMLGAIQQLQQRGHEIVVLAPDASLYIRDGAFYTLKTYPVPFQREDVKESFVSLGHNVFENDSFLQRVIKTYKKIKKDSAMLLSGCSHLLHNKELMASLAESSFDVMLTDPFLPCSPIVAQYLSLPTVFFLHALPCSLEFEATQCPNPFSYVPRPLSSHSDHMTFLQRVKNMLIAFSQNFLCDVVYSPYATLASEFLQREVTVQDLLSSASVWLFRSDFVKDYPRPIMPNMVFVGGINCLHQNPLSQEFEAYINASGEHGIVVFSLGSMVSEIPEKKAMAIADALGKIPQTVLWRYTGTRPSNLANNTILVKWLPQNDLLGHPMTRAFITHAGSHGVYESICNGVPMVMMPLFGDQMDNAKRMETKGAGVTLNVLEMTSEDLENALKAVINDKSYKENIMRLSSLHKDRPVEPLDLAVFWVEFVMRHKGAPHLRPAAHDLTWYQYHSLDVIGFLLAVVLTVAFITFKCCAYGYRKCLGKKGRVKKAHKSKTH

UGT1A3 = UGT1A3 (Homo sapiens, UniProt P35503); assay: Inhibition of UGT1A3 in human liver microsomes
Sequence of UGT1A3 (P35503 29-534): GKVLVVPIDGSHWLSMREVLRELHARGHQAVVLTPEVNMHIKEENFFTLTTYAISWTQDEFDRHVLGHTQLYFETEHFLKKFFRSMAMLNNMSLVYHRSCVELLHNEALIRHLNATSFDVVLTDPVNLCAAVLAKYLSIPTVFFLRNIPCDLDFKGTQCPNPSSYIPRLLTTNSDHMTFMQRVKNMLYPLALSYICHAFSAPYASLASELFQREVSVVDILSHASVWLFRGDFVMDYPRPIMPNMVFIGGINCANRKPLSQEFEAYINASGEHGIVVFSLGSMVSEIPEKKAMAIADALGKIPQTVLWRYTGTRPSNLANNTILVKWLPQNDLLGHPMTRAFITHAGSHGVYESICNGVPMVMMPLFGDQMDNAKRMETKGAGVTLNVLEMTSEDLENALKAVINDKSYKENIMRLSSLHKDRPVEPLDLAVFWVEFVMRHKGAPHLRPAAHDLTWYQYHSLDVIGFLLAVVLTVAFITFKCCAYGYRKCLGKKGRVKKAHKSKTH

UGT1A4 = UGT1A4 (Homo sapiens, UniProt P22310); assay: Inhibition of UGT1A4 in human liver microsomes
Sequence of UGT1A4 (P22310 29-534): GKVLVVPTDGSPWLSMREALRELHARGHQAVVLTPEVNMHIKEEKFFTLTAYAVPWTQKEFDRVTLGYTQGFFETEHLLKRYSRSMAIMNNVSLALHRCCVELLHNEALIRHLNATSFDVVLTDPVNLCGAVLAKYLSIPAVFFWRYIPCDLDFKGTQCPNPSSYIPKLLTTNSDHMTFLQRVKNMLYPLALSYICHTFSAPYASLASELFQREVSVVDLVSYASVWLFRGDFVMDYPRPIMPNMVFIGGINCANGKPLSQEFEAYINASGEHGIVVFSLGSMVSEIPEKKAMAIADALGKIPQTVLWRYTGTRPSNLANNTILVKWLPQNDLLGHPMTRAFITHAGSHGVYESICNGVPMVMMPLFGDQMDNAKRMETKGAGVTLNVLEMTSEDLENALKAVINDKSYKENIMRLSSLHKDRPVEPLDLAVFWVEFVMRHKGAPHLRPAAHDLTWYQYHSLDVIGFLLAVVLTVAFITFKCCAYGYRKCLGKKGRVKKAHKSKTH

UGT1A6 = UGT1A6 (Homo sapiens, UniProt P19224); assay: Inhibition of UGT1A6 in human liver microsomes; conditions: HLM
UGT1A9 = UGT1A9 (Homo sapiens, UniProt O60656); assay: Inhibition of UGT1A9 in human liver microsomes
Sequence of UGT1A9 (O60656 26-530): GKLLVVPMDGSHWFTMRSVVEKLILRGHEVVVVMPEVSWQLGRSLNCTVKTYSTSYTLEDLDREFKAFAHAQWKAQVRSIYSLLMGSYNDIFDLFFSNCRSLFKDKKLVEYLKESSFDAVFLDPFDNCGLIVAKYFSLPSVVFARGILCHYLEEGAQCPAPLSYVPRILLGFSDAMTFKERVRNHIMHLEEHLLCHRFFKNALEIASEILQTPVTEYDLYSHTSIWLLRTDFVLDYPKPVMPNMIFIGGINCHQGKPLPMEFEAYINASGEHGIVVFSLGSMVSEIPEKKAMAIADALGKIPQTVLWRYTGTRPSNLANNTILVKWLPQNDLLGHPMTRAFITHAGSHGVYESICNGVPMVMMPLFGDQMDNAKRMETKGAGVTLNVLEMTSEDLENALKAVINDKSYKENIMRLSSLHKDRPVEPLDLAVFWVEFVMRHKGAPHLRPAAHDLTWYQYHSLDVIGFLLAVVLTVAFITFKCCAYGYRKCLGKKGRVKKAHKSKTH

UGT2B7 = UGT2B7 (Homo sapiens, UniProt P16662); assay: Inhibition of UGT2B7 in human liver microsomes
Sequence of UGT2B7 (P16662 24-529): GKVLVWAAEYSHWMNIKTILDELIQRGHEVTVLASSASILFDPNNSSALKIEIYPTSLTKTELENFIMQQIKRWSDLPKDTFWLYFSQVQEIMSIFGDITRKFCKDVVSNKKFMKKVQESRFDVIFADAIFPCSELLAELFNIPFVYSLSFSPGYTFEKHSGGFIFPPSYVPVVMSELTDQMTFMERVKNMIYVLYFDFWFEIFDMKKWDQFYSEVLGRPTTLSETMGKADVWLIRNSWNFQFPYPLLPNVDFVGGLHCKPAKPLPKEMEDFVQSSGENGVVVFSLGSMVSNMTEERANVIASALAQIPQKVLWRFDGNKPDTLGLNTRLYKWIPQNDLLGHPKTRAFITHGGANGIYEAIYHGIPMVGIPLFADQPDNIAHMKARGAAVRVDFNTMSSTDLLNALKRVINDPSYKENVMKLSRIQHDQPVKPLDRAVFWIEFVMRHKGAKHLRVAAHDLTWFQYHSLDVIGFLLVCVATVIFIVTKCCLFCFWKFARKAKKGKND

[18] = Microsomal protein binding by equilibrium dialysis; conditions: 5 h at 37 °C in HLM
CYP2A6 = CYP2A6 (Homo sapiens, UniProt P11509); assay: Direct inhibition of CYP2A6 in human liver microsomes
Sequence of CYP2A6 (P11509 whole entry): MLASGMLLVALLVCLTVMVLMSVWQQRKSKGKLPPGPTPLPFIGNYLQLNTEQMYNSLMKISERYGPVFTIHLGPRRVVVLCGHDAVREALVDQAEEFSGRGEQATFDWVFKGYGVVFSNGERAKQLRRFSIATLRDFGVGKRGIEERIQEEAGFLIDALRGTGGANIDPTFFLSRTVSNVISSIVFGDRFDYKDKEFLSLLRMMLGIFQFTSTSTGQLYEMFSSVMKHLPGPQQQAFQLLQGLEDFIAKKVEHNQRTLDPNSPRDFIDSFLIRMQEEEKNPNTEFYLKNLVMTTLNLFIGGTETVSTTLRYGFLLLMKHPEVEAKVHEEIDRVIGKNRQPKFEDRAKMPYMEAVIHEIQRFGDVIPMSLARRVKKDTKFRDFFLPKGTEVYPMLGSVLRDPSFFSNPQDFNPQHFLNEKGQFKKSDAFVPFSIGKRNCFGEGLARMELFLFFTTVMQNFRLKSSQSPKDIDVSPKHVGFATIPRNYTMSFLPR

Study 3 = conditions: human, in vivo, 25 mg
CYP3A4 [19] = assay: Study 3
CYP3A4 [20] = assay: Study 2
CYP2D6 [21] = target: T5, CYP2D6 (Homo sapiens, UniProt P10635); assay: Study 2; conditions: for Increase of exposure (AUC) by esmethadone: dextromethorphan + esmethadone 75 mg vs dextromethorphan alone; for Cmax: po; for CL/F: mean ± SD
T5 sequence (P10635 whole entry): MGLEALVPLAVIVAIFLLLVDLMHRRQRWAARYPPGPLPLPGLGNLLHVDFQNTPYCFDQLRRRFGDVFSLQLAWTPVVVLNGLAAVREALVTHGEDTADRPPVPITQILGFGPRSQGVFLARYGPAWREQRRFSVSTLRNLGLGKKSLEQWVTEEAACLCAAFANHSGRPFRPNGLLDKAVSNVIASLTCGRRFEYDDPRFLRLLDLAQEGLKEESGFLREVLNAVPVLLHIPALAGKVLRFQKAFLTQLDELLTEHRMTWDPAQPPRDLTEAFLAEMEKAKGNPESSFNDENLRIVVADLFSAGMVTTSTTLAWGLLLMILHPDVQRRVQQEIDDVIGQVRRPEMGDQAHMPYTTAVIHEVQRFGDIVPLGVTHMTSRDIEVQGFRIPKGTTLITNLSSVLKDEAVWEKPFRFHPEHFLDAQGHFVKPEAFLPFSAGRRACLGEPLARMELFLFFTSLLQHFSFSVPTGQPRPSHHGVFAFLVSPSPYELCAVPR

CYP2D6 [22] = target: T5, CYP2D6; assay: Direct inhibition of CYP2D6
[23] = mRNA levels EC50, donor 1, 72 h
[24] = mRNA levels EC50, donor 2, 72 h
[25] = mRNA levels EC50, donor 3, 72 h
[26] = IC50,u (IC50 unbound), HLM, corrected for fraction unbound
[27] = midazolam 2 mg + esmethadone 25 mg, mean ± SD
[28] = midazolam 2 mg alone, mean ± SD
[29] = midazolam + esmethadone vs midazolam alone

CCC(=O)C(C[C@H](C)N(C)C)(c1ccccc1)c1ccccc1 [esmethadone]
EC50 at 72 h (CYP1A2 [1]; [23]): 25.7 µM | EC50 at 72 h (CYP1A2 [1]; [24]): 3.75 µM | EC50 at 72 h (CYP1A2 [1]; [25]): 26.3 µM | EC50 at 72 h (CYP2B6 [2]; [23]): 4.3 µM | EC50 at 72 h (CYP2B6 [2]; [24]): 5.36 µM | EC50 at 72 h (CYP2B6 [2]; [25]): 4.12 µM | EC50 at 72 h (CYP2C8 [3]; [23]): 2.85 µM | EC50 at 72 h (CYP2C8 [3]; [25]): 5.27 µM | EC50 at 72 h (CYP2C9 [4]; [23]): 1.05 µM | EC50 at 72 h (CYP2C9 [4]; [25]): 18.1 µM | Increase of CYP3A4 enzyme activity (CYP3A4 [5]): 5.2 ± 4.8 fold | Increase of CYP3A4 mRNA (CYP3A4 [5]): 21.4 ± 1.1 fold | IC50 (OCT1): 1.67 µM | IC50 (P-glycoprotein (P-gp)): 9.28 µM | Fecal excretion of the component (Study 1): no fecal excretion | Percent of the total plasma radioactivity exposure through 24 h post-dose (Study 1): 70.4% | Radioactivity excreted in urine (Study 1): 53.9 % of the dose | Mean exposure (AUC0.5–24) in plasma (Study 1; healthy male subjects): 1200 ng eq. h/g | Urinary excretion of the component (Study 1; mean across subjects): 13 % of the dose | Conclusion (inhibitory activity) (CYP1A2 [6]): No | Conclusion (inhibitory activity) (CYP2B6 [7]): Yes | Conclusion (inhibitory activity) (CYP2C8 [8]): Yes | Conclusion (inhibitory activity) (CYP2C9 [9]): Yes | Conclusion (inhibitory activity) (CYP2C19 [10]): Yes | Cmax,u, maximal unbound concentration in plasma at steady state [11]: 587 nM | IC50 (CYP2B6 [12]): > 200 µM | IC50 (CYP2C8 [13]): > 200 µM | IC50 (CYP2C9 [14]): > 200 µM | IC50 (CYP2C19 [15]; IC50, HLM): 174 µM | IC50 (CYP2C19 [15]; [26]): 150 µM | IC50 [16]: 139 µM | Conclusion (inhibitory activity) ([16]; Supersomes): Yes | Tolerability [17]: well tolerated | IC50 (UGT1A1): > 200 µM | Conclusion (inhibitory activity) (UGT1A1; HLM): Yes | IC50 (UGT1A3): > 200 µM | Conclusion (inhibitory activity) (UGT1A3; HLM): Yes | IC50 (UGT1A4): > 200 µM | Conclusion (inhibitory activity) (UGT1A4; HLM): Yes | Conclusion (inhibitory activity) (UGT1A6): No | IC50 (UGT1A9): > 200 µM | Conclusion (inhibitory activity) (UGT1A9; HLM): Yes | IC50 (UGT2B7): > 200 µM | Conclusion (inhibitory activity) (UGT2B7; HLM): Yes | Stability under equilibrium dialysis testing conditions [18]: stable | IC50 (CYP2A6): > 200 µM | Conclusion (inhibitory activity) (CYP2A6; HLM, esmethadone 0.2–200 μM): Yes | Tmax (Study 3): 3 h | Maximum observed concentration (text, concentration–time profiles) (CYP3A4 [19]; esmethadone 25 mg co-administered with cobicistat): 130 ± 22.5 ng/mL | Increase of total exposure (AUC0–inf) by cobicistat (CYP3A4 [19]; esmethadone + cobicistat vs alone): 32% | AUC(0-inf) (CYP3A4 [19]; human, in vivo, 25 mg): 4430 ± 1370 ng·h/mL | AUC(0-t) (CYP3A4 [19]; human, in vivo, 25 mg): 4100 ± 1210 ng·h/mL | Cmax (CYP3A4 [19]; human, in vivo, po, 25 mg): 131 ± 31.5 ng/mL | Effect of esmethadone on CYP3A4 activity (CYP3A4 [20]; clinical, esmethadone 25 mg once daily): negligible effect | CYP2D6 inhibitor category (FDA guidelines) (CYP2D6 [21]; clinical, esmethadone 75 mg loading dose): moderate inhibitor of CYP2D6 | Type of inhibition (CYP2D6 [22]; HLM): mixed (competitive and non-competitive) inhibition | Conclusion (inhibitory activity) (CYP2D6 [22]; HLM, esmethadone 0.2–200 μM): Yes | IC50 (CYP2D6 [22]; IC50, HLM, dextromethorphan O-demethylase): 9.6 µM and 9.63 µM | IC50 (CYP2D6 [22]; [26]): 8.28 µM | Ki (CYP2D6 [22]; Ki, HLM, five substrate concentrations 2–50 μM): 2.02 µM | Ki (CYP2D6 [22]; Ki,u (unbound Ki), HLM, corrected for fraction unbound): 1.74 µM

CCC(=O)C(CC(C)N(C)C)(c1ccccc1)c1ccccc1 (centres unmarked) [methadone]
Higher concentration associated with a single nucleotide polymorphism of P-gp [11]: 32.9% | Oral bioavailability, inter-subject range [11]: 36–100% | Oral bioavailability ([11]; similar for the two enantiomers): 70–80%

CCC(=O)C(C[C@@H](C)N(C)C)(c1ccccc1)c1ccccc1 [levomethadone]
Time to maximum observed concentration (Tmax) ([11]; oral methadone): 3 h

oxy-esmethadone glucuronide
Percent of the total plasma radioactivity exposure through 24 h post-dose (Study 1): 0.473%

CN1CC[C@@]23CCCC[C@@H]2[C@@H]1Cc1ccc(O)cc13 [dextrorphan]
Increase of exposure (AUC) by esmethadone (CYP2D6 [21]): 3.11 fold | AUC(0-inf) (CYP2D6 [21]; human, plasma, oral, 30 mg): 27.2 ng·h/mL | AUC(0-t) (CYP2D6 [21]; human, plasma, oral, 30 mg): 26.3 ng·h/mL | half-life (CYP2D6 [21]; human, plasma, oral, 30 mg): 5.64 ± 4.97 h | Cmax (CYP2D6 [21]; human, plasma, 30 mg): 4.9 ± 2.62 ng/mL

OCc1ncc2n1-c1ccc(Cl)cc1C(c1ccccc1F)=NC2 [1′-hydroxymidazolam]
Cmax (CYP3A4 [20]; midazolam 2 mg + esmethadone 25 mg (day 19, after repeated dosing), mean ± SD): 13,100 ± 4930 pg/mL | AUC0–inf (CYP3A4 [20]; [27]): 42,700 ± 15100 h*pg/mL | AUC0–t (CYP3A4 [20]; [27]): 41,100 ± 14,500 h*pg/mL | Tmax (CYP3A4 [20]; midazolam 2 mg + esmethadone 25 mg, median (range)): 0.925 (0.500–2.00)* h | AUC0–inf (CYP3A4 [20]; [28]): 11,600 ± 8260 h*pg/mL | AUC0–t (CYP3A4 [20]; [28]): 10,700 ± 7360 h*pg/mL | Tmax (CYP3A4 [20]; midazolam 2 mg alone, median (range)): 0.500 (0.500–0.750) h | Cmax (CYP3A4 [20]; midazolam 2 mg oral alone (day 1), plasma, mean ± SD): 5440 ± 3520 pg/mL | Increase of AUC by esmethadone (CYP3A4 [20]; [29]): 3.84 fold and 3.8 fold | Increase of Cmax by esmethadone (CYP3A4 [20]; [29]): 2.4 fold

Cc1ncc2n1-c1ccc(Cl)cc1C(c1ccccc1F)=NC2 [midazolam, reference compound]
AUC(0-inf) (CYP3A4 [20]; human, in vivo, 2 mg): 26.8 ng·h/mL | AUC(0-t) (CYP3A4 [20]; human, in vivo, 2 mg): 25.5 ng·h/mL | Tmax (CYP3A4 [20]; human, in vivo, 2 mg): 0.5 h | Vd/F (CYP3A4 [20]; human, in vivo, 2 mg): 571 ± 182 L | half-life (CYP3A4 [20]; human, in vivo, 2 mg): 5.12 ± 1.92 h | Cmax (CYP3A4 [20]; human, in vivo, po, 2 mg): 11500 pg/mL | CL/F (CYP3A4 [20]; [27]): 84.5 ± 27.5 L/h | CL/F (CYP3A4 [20]; [28]): 83.8 ± 27.9 L/h

COc1ccc2c(c1)[C@]13CCCC[C@@H]1[C@H](C2)N(C)CC3 [dextromethorphan]
CL/F (CYP2D6 [21]; dextromethorphan 30 mg + esmethadone 75 mg): 907 ± 715 L/h | CL/F (CYP2D6 [21]; dextromethorphan 30 mg alone): 4560 ± 3280 L/h | Increase of exposure (AUC) by esmethadone (CYP2D6 [21]): 2.71 fold | AUC(0-inf) (CYP2D6 [21]; human, plasma, oral, 30 mg): 31.2 ng·h/mL | AUC(0-t) (CYP2D6 [21]; human, plasma, oral, 30 mg): 26.6 ng·h/mL | Tmax (CYP2D6 [21]; human, plasma, oral, 30 mg): 2.5 h | Vd/F (CYP2D6 [21]; human, plasma, oral, 30 mg): 39000 L | half-life (CYP2D6 [21]; human, plasma, oral, 30 mg): 7.15 ± 3.29 h | Cmax (CYP2D6 [21]; human, plasma, 30 mg): 2.2 ± 3.8 ng/mL
